Data published in patent publication US5807721A, “Compound FO-1289, process of production with aspergillus and strain” (The Kitasato Institute, priority 1992, dated 1998).

Target: rat acyl CoA cholesterol acyltransferase
Assay: Inhibitory action on rat acyl CoA cholesterol acyltransferase (rat liver microsome crude enzyme, [1-14C]oleoyl-CoA)
Format: biochemical
Details: rat liver microsome fraction, pH 7.4, 37° C., 30 minutes, 30 μM oleoyl-CoA, 30 μM cholesterol; read-out: IC50 (50% inhibition concentration on the enzyme)
Procedure: An inhibitory action of the FO-1289 substance for acyl CoA cholesterol acyltransferase is tested according to the method of Kyoda et al. (J. Antibiotics, 44: 136 1991). A crude enzyme prepared from rat liver microsome fraction is added in the 100 mM phosphate buffer solution (pH 7.4) […] containing 300 μM bovine serum albumin. 30 μM (1-^14 C ) oleoyl-CoA (0.02 μCi) and 30 μM cholesterol (solubilized with 1/30 w/w Triton WR-1339) and incubaatd at 37° C. for 30 minutes. Total lipid is extracted with a mixture of chloroform-methanol (2:1), then each lipid is separated by thin layer chromatography (Kiesel gel GF254, developer:petroleum ether--diethyl ether--acetic acid=90:10:1). Radioactivity incorporated in the cholesterol ester fraction is analysed by RI scanner (Ambis Corp.) to assay an activity of acyl CoA cholesterol acyltransferase.

IC50 [nM] | Structure (SMILES)
100 | CCC(=O)OCC1(C)C(OC(C)=O)CCC2(C)C1CC(OC(C)=O)C1(C)Oc3cc(-c4cccnc4)oc(=O)c3C(O)C21 (stereo not shown) [FO-1289B]
30 | CCC(=O)OC1CC2C(C)(COC(C)=O)C(OC(C)=O)CCC2(C)C2C(O)c3c(cc(-c4cccnc4)oc3=O)OC12C (stereo not shown) [FO-1289C]
150 | CCC(=O)OC1CCC2(C)C(CC(OC(C)=O)C3(C)Oc4cc(-c5cccnc5)oc(=O)c4C(O)C23)C1(C)COC(C)=O (stereo not shown) [FO-1289D]
40 | CC(=O)OCC1(C)C(OC(C)=O)CCC2(C)C1CC(OC(C)=O)C1(C)Oc3cc(-c4cccnc4)oc(=O)c3C(O)C21 (stereo not shown) [FO-1289A]
